In patent US7132441B2, “Immunosuppressive effects of administration of a cyclooxygenase-2 inhibitor and a 5-lipoxygenase inhibitor” (G.D. Searle & Co., priority 1996, dated 2006):

System: B10.Br mouse tailskin grafted on male C57BL/10 mice
Test: Skin graft rejection time (transplantation and evaluation of graft rejection)
Type: in vivo
Details: i.p. from day of grafting until rejection, Example 2 30 mpk/day q.d., Example 3 10 mpk/day q.d.; for Skin Graft Rejection Time, Ex. #1 Rejection: experiment #1; for Skin Graft Rejection Time, Ex. #3 Rejection: experiment #3
Description: Transplantation and Evaluation of Graft Resection
The method of skin grafting used has been previously described [D. Steinmuller, Skin Grafting. Surgical Techniques in Immunology, Methods Enzymol. […] Briefly, a tailskin from an 8–12 week old male B10.Br mouse was removed and stored in cold saline. Male C57BL/10 mice were anesthetized, and their backs were shaved. The backs were scrubbed with alcohol, and a 1 cm^2 piece of skin was removed. A similar size piece of skin was cut from the tailskin of the B10.Br mouse and placed in the excised area on the C57BL/10 animal's back. A petroleum jelly coated bandage was placed over the graft and held in place by a single surgical staple. Compounds were prepared as a suspension in 0.5% methylcellulose (Sigma, St. Louis, Mo.), and 0.025% Tween® 20 (Sigma). The compounds were administered by i.p. injection in a volume of 0.1 ml beginning on the day of skin grafting and continuing until transplant rejection. […] Compounds were administered alone or as combinations of a COX-2 and 5-LO inhibitor. Bandages were left in place until 8 days post grafting. At that time they were removed, and the grafts were observed daily or signs of rejection. Rejection was determined by complete blackening or scabbing of the grafted skin.

Structure (SMILES) | Skin Graft Rejection Time, Ex. #1 Rejection [days] | Skin Graft Rejection Time, Ex. #3 Rejection [days]
CC(C#Cc1ccc(Oc2ccc(F)cc2)o1)N(O)C(N)=O (stereo not shown) [Example 3, N′-[3-[5-(4-Fluorophenoxy)furyl-2-yl]-1-methyl-2-propynyl]-N′-hydroxyurea] | 15.0 | 17.0
COc1ccc(-c2cc(C(F)F)nn2-c2ccc(S(N)(=O)=O)cc2)cc1F [Example 2, 4-[5-(3-Fluoro-4-methoxyphenyl)-3-(difluoromethyl)-1H-pyrazol-1-yl]benzenesulfonamide] | 15.7 | 17.3
